{
  "source": "patent US20070123556A1",
  "about": "“Treatment with Sigma Receptor Agonists Post-Stroke” (UNIVERSITY OF SOUTH FLORIDA, priority 2005, published 2007)",
  "key": {"[1]": {"tested_on": "cultured cortical neurons", "assay": "in vitro ischemia (sodium azide/glucose deprivation), fura-2 [Ca2+]i", "format": "cell-based, rat", "description": "The effects of sigma receptors on ischemia-induced changes in intracellular calcium concentrations were studied in cultured cortical neurons from embryonic (E18) rats. Dams were euthanatized by decapitation, uterus removed, and embryos dissected out and placed in isotonic buffer containing (in mM): 137 NaCl, 5 KCl, 0.2 NaH2PO4, 0.2 KH2PO4, 5.5 glucose, 6 sucrose (pH 7.4 with NaOH). Cortex were excised and minced, and tissue digested in isotonic buffer containing 0.25% trypsin/EDTA for 10 min at 37° C. and added to 3× volume of high glucose culture media (Dulbecco's Modified Eagle Media; Invitrogen, Inc., Carlsbad, Calif.), 10% (v/v) fetal calf serum, 100 U/ml penicillin and 0.1 mg/ml streptomycin. Cells were counted on a hemocytometer, plated (0.5×10^6 cells) on 18 mm coverslips coated with poly-l-lysine, and incubated at 37° C. under a 95% air, 5% CO2 atmosphere. After 24 hr the media was replaced with Neurobasal (Invitrogen) medium supplemented with B27 (Invitrogen) and 0.5 mM 1-glutamine to limit astrocyte proliferation in the cultures. Cells were used after 14-21 days in culture.\nIntracellular free-calcium was measured using the calcium sensitive dye, fura-2 as previously described (DeHaven and Cuevas, 2004). Cells plated on coverslips were incubated for 1 hour at room temperature in physiological saline solution (PSS) consisting of (in mM): 140 NaCl, 3 KCl, 2.5 CaCl2, 1.2 MgCl2, 7.7 glucose and 10 HEPES (pH to 7.2 with NaOH), which also contained 1 μM of the membrane permeable ester form of fura-2, acetoxymethylester (fura-2 AM) and 0.1% dimethyl sulfoxide (DMSO). The coverslips were then washed in PSS (fura-2 AM free) prior to the experiments being carried out. All solutions were applied via a rapid application system identical to that previously described (Cuevas and Berg, 1998).\nA DG-4 high-speed wavelength switcher (Sutter Instruments Co., Novato, Calif.) was used to apply alternating excitation light, and fluorescent emission was captured using a Sensicam digital CCD camera (Cooke Corporation, Auburn Hills, Mich.) and recorded with Slidebook 3.0 software (Intelligent Imaging Innovations, Denver, Colo.). Changes in [Ca^2+]i were calculated using the Slidebook 3 software (Intelligent Imaging Innovations) using methods described previously (DeHaven and Cuevas, 2004).\nIn vitro ischemia was achieved using the sodium azide/glucose deprivation model.\nThe control bath solution for all experiments was a physiological saline solution (PSS) containing (in mM) 140 NaCl, 1.2 MgCl2, 3 KCl, 2.5 CaCl2, 7.7 glucose and 10 HEPES, pH to 7.2 with NaOH. All drugs were applied in this solution unless otherwise noted. In vitro ischemia was induced by addition of the cytochrome oxidase inhibitor, NaN3 (4 mM), and removal of glucose from the PSS. For experiments in which multiple ischemic episodes were induced in a single cell, the order of drug application was alternatively reversed to compensate for any effects due to rundown, desensitization or ischemic preconditioning. For experiments with metaphit, cells were preincubated in 50 μM metaphit during the last 15 mm of fura-2 loading and immediately prior to experiments being conducted. The metaphit was washed off for 5 min in the bath using PSS."}, "rats subjected to MCAO [2]": {"tested_on": "rats subjected to MCAO", "assay": "Fluoro-Jade infarct area after MCAO", "format": "in vivo, rat"}, "rats subjected to MCAO [3]": {"tested_on": "rats subjected to MCAO"}, "rats": {"tested_on": "rats", "conditions": "doses as high as 30 mg/kg; cited from earlier work"}},
  "note": "Several values for one entry are separate records, joined by “and”; a condition that tells them apart may be missing. Identical values can stand only once. Like-named read-outs stand apart in the source and are kept apart here.",
  "data": [
    {"compound": "Cc1ccccc1NC(=N)Nc1ccccc1C", "note": "[DTG, 1,3-di-o-tolyguanidine]", "values": [
      {"measurement": "ischemia-induced elevation in [Ca2+]i", "setting": "[1]; 50 μM DTG after preincubation in 50 μM metaphit", "value": "237 ± 39", "unit": "nM"},
      {"measurement": "decrease of ischemia-evoked elevation in [Ca2+]i", "setting": "[1]; 50 μM DTG, cells preincubated in 50 μM metaphit", "value": "52±8", "unit": "%"},
      {"measurement": "decrease of ischemia-evoked rise in [Ca2+]i", "setting": "[1]; 50 μM DTG, control cells", "value": "~70% and 83±3%"},
      {"measurement": "ischemia-induced elevation in [Ca2+]i", "setting": "[1]; 50 μM DTG, no metaphit (control 291±47 nM)", "value": "47 ± 9", "unit": "nM"},
      {"measurement": "decrease of Fluoro-Jade staining relative to untreated MCAO animals", "setting": "rats subjected to MCAO [2]; 15 mg/kg, 24 hr post stroke", "value": "> 85", "unit": "%"},
      {"measurement": "infarct area (Fluoro-Jade labeled)", "setting": "rats subjected to MCAO [2]; cortical/hippocampal region, 15 mg/kg DTG from 24 h post-MCAO (MCAO-only 29±3%)", "value": "2±2", "unit": "%"},
      {"measurement": "infarct area (Fluoro-Jade labeled)", "setting": "rats subjected to MCAO [2]; cortical/striatal region, 15 mg/kg DTG from 24 h post-MCAO (MCAO-only 44±5%)", "value": "6±4", "unit": "%"},
      {"measurement": "survival rate 96 hours post MCAO", "setting": "rats subjected to MCAO [3]; 15 mg/kg daily s.c. at 24, 48, 72 h post MCAO", "value": "over 70%"},
      {"measurement": "survival rate 96 hours post MCAO", "setting": "rats subjected to MCAO [3]; 30 mg/kg daily s.c. at 24, 48, 72 h post MCAO", "value": "under 40%"},
      {"measurement": "deaths in sham animals following DTG application", "setting": "rats subjected to MCAO [3]; sham control, 15 mg/kg DTG", "value": "none"},
      {"measurement": "tolerability", "setting": "rats", "value": "well tolerated"}
    ]}
  ]
}
